Experiments:
[1] = system: skin; assay: Skin coloration by the Maillard reaction (self-tanning) after application to the skin; type: in vivo; details: for coloration produced in the skin: applied to the skin, melanoidins in the upper layers of skin
Method: The secondary compound, 3,5-dimethoxy-4-hydroxybenzaldehyde, is applied to the skin along with DHA.
Over time, the chemical stability of unprotected DHA is reduced, producing undesirable chemical compounds such as methylglyoxal and formic acid. […] The Maillard reaction produced by the DHA take sup to 5 hours to produce melanoidins, or colored compounds, in the upper layers of the skin. By the time an undesirable coloration develops, the wearer is helpless to remove or adjust the coloration, and must wait until their upper layers of skin are shed in order to rid themselves of the off-color.
FIG. 1 illustrates the chemical structure of 3,5-dimethoxy-4-hydroxybenzaldehyde. Structurally, this compound is a vanillin, or a hydroxymethoxybenzaldehyde.

[2] = Water solubility
Excerpt: The 3,5-dimethoxy-4-hydroxybenzaldehyde, as a water-insoluble aldehyde, is chemically compatible with water-soluble DHA. The compounds exist in two separate phases of a cosmetic formulation, the water phase and the oil phase.

Question: With `COc1cc(C=O)cc(OC)c1O` [3,5-dimethoxy-4-hydroxybenzaldehyde] as the molecule, how does the “coloration produced in the skin” value [1] read?
Answer: olive-green

Question: What about the “Maillard reaction rate relative to DHA” value ([1]; compared with DHA, attributed to larger molecular size and longer penetration time into the skin) of the same molecule?
Answer: slightly slower

Question: What about the water solubility [2] of the same molecule?
Answer: water-insoluble

Question: For `CCOc1cc(C=O)ccc1O` [ethylvanillin], which “coloration produced in the skin” value [1] is on record?
Answer: do not produce similar coloration or any Maillard reaction mechanism

Question: With `COc1cccc(C=O)c1O` [ortho-vanillin] as the molecule, how does the “coloration produced in the skin” value [1] read?
Answer: do not produce similar coloration or any Maillard reaction mechanism

Question: What does the source list for `O=C(CO)CO` [DHA, 1,3-dihydroxyacetone]?
Answer: coloration produced in the skin [1]: orange-brown; coloration produced on the skin by degraded DHA ([1]; degraded or "stale" DHA applied to the skin): orange coloration; time of the Maillard reaction to produce melanoidins in the upper layers of the skin ([1]; in vivo): up to 5 hours
